From PubChem BioAssay (NCI)
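Step 1: Grow cells in 96-well plates. Step 2: Expose to compound for 48 hours at 5 concentrations. Step 3: Interpolate endpoints linearly; if unreached, use highest concentration. At the TGI there is no net growth.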

Assays:
Assay in all cases: inhibition of tumour cell growth, NCI panel, 48 h
[1] = tested on: OVCAR-5 ovarian
[2] = tested on: MDA-N
[3] = tested on: NCI-H522 lung
[4] = tested on: EKVX NSCLC
[5] = tested on: NCI-H226 lung
[6] = tested on: SF-295 CNS
[7] = tested on: TK-10 renal
[8] = tested on: SK-MEL-28 melanoma
[9] = tested on: MCF7 breast
[10] = tested on: M14 melanoma
[11] = tested on: ACHN renal
[12] = tested on: SNB-75 CNS
[13] = tested on: SK-OV-3 ovarian
[14] = tested on: RXF 393 renal
[15] = tested on: IGROV1 ovarian
[16] = tested on: HL-60(TB) leukemia
[17] = tested on: COLO 205 colon
[18] = tested on: 786-0 renal
[19] = tested on: MDA-MB-231 breast
[20] = tested on: CCRF-CEM leukemia
[21] = tested on: HT29 colon
[22] = tested on: SNB-19 CNS
[23] = tested on: UACC-257 melanoma
[24] = tested on: KM12 colon
[25] = tested on: SK-MEL-5 melanoma
[26] = tested on: SF-268 CNS
[27] = tested on: U251 CNS
[28] = tested on: LOX IMVI melanoma
[29] = tested on: BT-549 breast
[30] = tested on: MALME-3M melanoma
[31] = tested on: OVCAR-3 ovarian
[32] = tested on: HCT-116 colon
[33] = tested on: HCT-15 colon
[34] = tested on: K-562 leukemia
[35] = tested on: CAKI-1 renal
[36] = tested on: NCI-H460 lung
[37] = tested on: HCC-2998 colon
[38] = tested on: HS 578T breast
[39] = tested on: RPMI-8226 leukemia
[40] = tested on: A498 renal
[41] = tested on: UACC-62 melanoma
[42] = tested on: SW-620 colon
[43] = tested on: DU-145 prostate
[44] = tested on: MDA-MB-435
[45] = tested on: SN12C renal
[46] = tested on: SK-MEL-2 melanoma
[47] = tested on: UO-31 renal
[48] = tested on: HOP-62 NSCLC
[49] = tested on: NCI/ADR-RES ovarian
[50] = tested on: SF-539 CNS
[51] = tested on: OVCAR-8 ovarian
[52] = tested on: PC-3 prostate
[53] = tested on: A549 NSCLC
[54] = tested on: T-47D breast
[55] = tested on: NCI-H23 lung
[56] = tested on: OVCAR-4 ovarian
[57] = tested on: MOLT-4 leukemia

SMILES: CCOC(=O)c1nnsc1NC(=O)NN
- TGI [1]: > 100 µM
- TGI [2]: > 100 µM
- TGI [3]: > 100 µM
- TGI [4]: > 100 µM
- TGI [5]: > 100 µM
- TGI [6]: > 100 µM
- TGI [7]: > 100 µM
- TGI [8]: > 100 µM
- TGI [9]: > 100 µM
- TGI [10]: > 100 µM
- TGI [11]: > 100 µM
- TGI [12]: > 100 µM
- TGI [13]: > 100 µM
- TGI [14]: > 100 µM
- TGI [15]: > 100 µM
- TGI [16]: > 100 µM
- TGI [17]: > 100 µM
- TGI [18]: > 100 µM
- TGI [19]: > 100 µM
- TGI [20]: > 100 µM
- TGI [21]: > 100 µM
- TGI [22]: > 100 µM
- TGI [23]: > 100 µM
- TGI [24]: > 100 µM
- TGI [25]: > 100 µM
- TGI [26]: > 100 µM
- TGI [27]: > 100 µM
- TGI [28]: > 100 µM
- TGI [29]: > 100 µM
- TGI [30]: > 100 µM
- TGI [31]: > 100 µM
- TGI [32]: > 100 µM
- TGI [33]: > 100 µM
- TGI [34]: > 100 µM
- TGI [35]: > 100 µM
- TGI [36]: > 100 µM
- TGI [37]: > 100 µM
- TGI [38]: > 100 µM
- TGI [39]: > 100 µM
- TGI [40]: > 100 µM
- TGI [41]: > 100 µM
- TGI [42]: > 100 µM
- TGI [43]: > 100 µM
- TGI [44]: > 100 µM
- TGI [45]: > 100 µM
- TGI [46]: > 100 µM
- TGI [47]: > 100 µM
- TGI [48]: > 100 µM
- TGI [49]: > 100 µM
- TGI [50]: > 100 µM
- TGI [51]: > 100 µM
- TGI [52]: > 100 µM
- TGI [53]: > 100 µM
- TGI [54]: > 100 µM
- TGI [55]: > 100 µM

SMILES: O=c1[nH]nc(Cc2ccccc2)n1/N=C/c1ccc(/C=N/n2c(Cc3ccccc3)n[nH]c2=O)cc1
- TGI [1]: > 100 µM
- TGI [2]: > 100 µM
- TGI [3]: > 100 µM
- TGI [4]: > 100 µM
- TGI [5]: > 100 µM
- TGI [6]: > 100 µM
- TGI [7]: > 100 µM
- TGI [8]: > 100 µM
- TGI [9]: > 100 µM
- TGI [56]: > 100 µM
- TGI [10]: > 100 µM
- TGI [11]: > 100 µM
- TGI [57]: 47 µM
- TGI [14]: > 100 µM
- TGI [15]: > 100 µM
- TGI [16]: > 100 µM
- TGI [17]: > 100 µM
- TGI [18]: > 100 µM
- TGI [19]: > 100 µM
- TGI [20]: 50.7 µM
- TGI [21]: > 100 µM
- TGI [22]: > 100 µM
- TGI [23]: > 100 µM
- TGI [24]: > 100 µM
- TGI [25]: > 100 µM
- TGI [26]: > 100 µM
- TGI [27]: > 100 µM
- TGI [28]: > 100 µM
- TGI [29]: > 100 µM
- TGI [30]: > 100 µM
- TGI [31]: > 100 µM
- TGI [32]: > 100 µM
- TGI [33]: > 100 µM
- TGI [34]: 50.5 µM
- TGI [35]: > 100 µM
- TGI [36]: > 100 µM
- TGI [38]: > 100 µM
- TGI [39]: > 100 µM
- TGI [40]: > 100 µM
- TGI [41]: > 100 µM
- TGI [42]: > 100 µM
- TGI [43]: > 100 µM
- TGI [44]: > 100 µM
- TGI [45]: > 100 µM
- TGI [46]: > 100 µM
- TGI [47]: > 100 µM
- TGI [48]: > 100 µM
- TGI [49]: > 100 µM
- TGI [51]: > 100 µM
- TGI [52]: > 100 µM
- TGI [53]: > 100 µM
- TGI [54]: > 100 µM
- TGI [55]: > 100 µM

SMILES: Cc1ccc(C2C(C(=O)C(C)(C)C)N2S(=O)(=O)c2ccc(C)cc2)cc1 (configuration not stated)
- TGI [1]: 49.3 µM
- TGI [2]: 34.8 µM
- TGI [3]: 36.1 µM
- TGI [4]: 37 µM
- TGI [5]: 55.1 µM
- TGI [6]: > 100 µM
- TGI [7]: 97.2 µM
- TGI [8]: 75.3 µM
- TGI [9]: 62.3 µM
- TGI [56]: 96.2 µM
- TGI [10]: 35.6 µM
- TGI [12]: 69.6 µM
- TGI [13]: > 100 µM
- TGI [14]: 46.1 µM
- TGI [15]: 46.5 µM
- TGI [17]: 34.6 µM
- TGI [19]: 39.8 µM
- TGI [20]: 78.1 µM
- TGI [21]: 65.2 µM
- TGI [22]: 57.5 µM
- TGI [24]: > 100 µM
- TGI [26]: 94.6 µM
- TGI [27]: 42 µM
- TGI [28]: 53.6 µM
- TGI [29]: 37.5 µM
- TGI [30]: 49.1 µM
- TGI [31]: 62 µM
- TGI [32]: 35.4 µM
- TGI [33]: 47.5 µM
- TGI [34]: 65.3 µM
- TGI [35]: 59.1 µM
- TGI [37]: 33.6 µM
- TGI [38]: 82.5 µM
- TGI [39]: 64.2 µM
- TGI [41]: 30.7 µM
- TGI [42]: 74.7 µM
- TGI [43]: 38.6 µM
- TGI [44]: 45.8 µM
- TGI [45]: 40.6 µM
- TGI [46]: > 100 µM
- TGI [47]: 32.6 µM
- TGI [48]: 94.6 µM
- TGI [49]: 75.9 µM
- TGI [50]: 28.9 µM
- TGI [51]: 51.9 µM
- TGI [52]: > 100 µM
- TGI [53]: > 100 µM
- TGI [54]: 52 µM
- TGI [55]: 48.5 µM
